Measurements as given in patent publication US10800791B2, “Triazole ACC inhibitors and uses thereof” (Gilead Apollo, LLC, priority 2015, dated 2020).
Converted amounts (≈) assume the structure as drawn. Where two headings read alike, the source gives them in different places.

Columns and labels:
Botrtyis cinerea (Bc) = test: Growth inhibition assay of fungal pathogens, Bc; format: cell-based; settings: 48 h, growth inhibition at 48 hours vs 2% DMSO control
Summary of the method: (§1)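 Spores from sub-cultured plates were diluted in 17% V8 liquid medium and exposed to compound from DMSO stocks at final concentrations of 50, 10 and 2 ppm or 2, 0.4 and 0.08 ppm. OD600 and visual ratings at 48 h were compared with the 2% DMSO control to give percent growth inhibition.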

[1] = system: Fusarium virguliforme (Fv); test: Growth inhibition assay of fungal pathogens, Fv; format: cell-based; settings: 48 h
Summary of the method: as §1

C. parapsilosis = test: Antifungal Activity Assay (broth microtiter MIC), C. parapsilosis; format: cell-based, Candida parapsilosis; settings: Lodderomyces parapsilosis, ATCC22019, 48 h
Summary of the method: (§2)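 Endpoint: lowest concentration visibly inhibiting growth relative to control after 48 h. Inoculum of 2.5×10^3 CFU/mL final in RPMI 1640+MOPS, prepared from overnight 35° C agar cultures; test compounds diluted in water to 128 μg/mL before plating.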

fungal (fACC2) = fungal (fACC2) (UniProt Q00955); settings: read-out: fACC2 (in vitro ACC2 Inhibition Assay, IC50); Table 2b, additional results; ADP-Glo, 5 nM ACC2, 20 μM ATP, 20 μM acetyl-CoA
Diplodia maydis (Dm) = test: Growth inhibition assay of fungal pathogens, Dm; format: cell-based; settings: Stenocarpella maydis, 48 h, growth inhibition at 48 hours vs 2% DMSO control
Summary of the method: as §1

C. krusei = test: Antifungal Activity Assay (broth microtiter MIC), C. krusei; format: cell-based, Candida krusei; settings: Pichia kudriavzevii, ATCC6258, 48 h
Summary of the method: as §2

[2] = system: Fusarium moniliforme (Fm); test: Growth inhibition assay of fungal pathogens, Fm; format: cell-based; settings: Fusarium verticillioides, 48 h, read-out: Concentration at 90% Inhibition Fm
Summary of the method: as §1

Rhizoctonia solani (Rs) = test: Growth inhibition assay of fungal pathogens, Rs; format: cell-based; settings: 48 h
human (hACC2) = human (hACC2) (Homo sapiens, UniProt O00763); test: In vitro ACC inhibition assay (ADP-Glo), hACC2; format: biochemical; settings: Table 2b, additional results, 5 nM ACC2, 20 μM ATP, 20 μM acetyl-CoA
Procedure: The detailed procedure is as follows. […] 10 μL ADP glo reagent was added. […] 20 μL kinase detection reagent was added.

[3] = system: Phytophthora capsici (Pc); test: Growth inhibition assay of fungal pathogens, Pc; format: cell-based; settings: 48 h
Summary of the method: as §1

C. albicans = test: Antifungal Activity Assay (broth microtiter MIC), C. albicans; format: cell-based, Candida albicans; settings: Candida albicans, ATCC90028, 48 h
Summary of the method: as §2

[4] = system: Collectotrichum graminicola (Cg); test: Growth inhibition assay of fungal pathogens, Cg; format: cell-based; settings: 48 h, growth inhibition at 48 hours vs 2% DMSO control
Summary of the method: as §1

Septoria tritici (St) = test: Growth inhibition assay of fungal pathogens, St; format: cell-based; settings: Zymoseptoria tritici, 48 h, growth inhibition at 48 hours vs 2% DMSO control
Summary of the method: as §1

[5] = Botrtyis cinerea, read-out: Concentration at 90% Inhibition Bc
[6] = growth inhibition at 48 hours vs 2% DMSO control, read-out: Concentration at 90% Inhibition Fv
[7] = Table 3b (additional results), ATCC 22019, 3 replicates, MIC recorded at 48 h, read-out: MIC, C. parapsilosis ATCC 22019
[8] = Diplodia maydis, read-out: Concentration at 90% Inhibition Dm
[9] = Table 3b (additional results), ATCC 6258, 3 replicates, MIC recorded at 48 h, read-out: MIC, C. krusei ATCC 6258
[10] = Fusarium moniliforme, growth inhibition at 48 hours vs 2% DMSO control
[11] = mycelial plugs, growth inhibition at 48 hours vs 2% DMSO control, read-out: Concentration at 90% Inhibition Rs
[12] = growth inhibition at 48 hours vs 2% DMSO control, read-out: Concentration at 90% Inhibition Pc
[13] = Table 3b (additional results), ATCC 90028, 3 replicates, MIC recorded at 48 h, read-out: MIC, C. albicans ATCC 90028
[14] = Collectotrichum graminicola, read-out: Concentration at 90% Inhibition Cg
[15] = Septoria tritici, read-out: Concentration at 90% Inhibition St
[16] = read-out: Concentration at 90% Inhibition Bc, Botrtyis cinerea
[17] = read-out: Concentration at 90% Inhibition Fv, Fusarium virguliforme, growth inhibition at 48 hours vs 2% DMSO control
[18] = read-out: MIC, C. parapsilosis ATCC 22019, Table 3b (additional results), 3 replicates, MIC recorded at 48 h
[19] = read-out: Concentration at 90% Inhibition Dm, Diplodia maydis
[20] = read-out: MIC, C. krusei ATCC 6258, Table 3b (additional results), 3 replicates, MIC recorded at 48 h
[21] = read-out: Concentration at 90% Inhibition Rs, Rhizoctonia solani, mycelial plugs, growth inhibition at 48 hours vs 2% DMSO control
[22] = read-out: Concentration at 90% Inhibition Pc, Phytophthora capsici, growth inhibition at 48 hours vs 2% DMSO control
[23] = read-out: MIC, C. albicans ATCC 90028, Table 3b (additional results), 3 replicates, MIC recorded at 48 h
[24] = read-out: Concentration at 90% Inhibition Cg, Collectotrichum graminicola
[25] = read-out: Concentration at 90% Inhibition St, Septoria tritici

fungal (fACC2), sequence (Q00955 whole entry): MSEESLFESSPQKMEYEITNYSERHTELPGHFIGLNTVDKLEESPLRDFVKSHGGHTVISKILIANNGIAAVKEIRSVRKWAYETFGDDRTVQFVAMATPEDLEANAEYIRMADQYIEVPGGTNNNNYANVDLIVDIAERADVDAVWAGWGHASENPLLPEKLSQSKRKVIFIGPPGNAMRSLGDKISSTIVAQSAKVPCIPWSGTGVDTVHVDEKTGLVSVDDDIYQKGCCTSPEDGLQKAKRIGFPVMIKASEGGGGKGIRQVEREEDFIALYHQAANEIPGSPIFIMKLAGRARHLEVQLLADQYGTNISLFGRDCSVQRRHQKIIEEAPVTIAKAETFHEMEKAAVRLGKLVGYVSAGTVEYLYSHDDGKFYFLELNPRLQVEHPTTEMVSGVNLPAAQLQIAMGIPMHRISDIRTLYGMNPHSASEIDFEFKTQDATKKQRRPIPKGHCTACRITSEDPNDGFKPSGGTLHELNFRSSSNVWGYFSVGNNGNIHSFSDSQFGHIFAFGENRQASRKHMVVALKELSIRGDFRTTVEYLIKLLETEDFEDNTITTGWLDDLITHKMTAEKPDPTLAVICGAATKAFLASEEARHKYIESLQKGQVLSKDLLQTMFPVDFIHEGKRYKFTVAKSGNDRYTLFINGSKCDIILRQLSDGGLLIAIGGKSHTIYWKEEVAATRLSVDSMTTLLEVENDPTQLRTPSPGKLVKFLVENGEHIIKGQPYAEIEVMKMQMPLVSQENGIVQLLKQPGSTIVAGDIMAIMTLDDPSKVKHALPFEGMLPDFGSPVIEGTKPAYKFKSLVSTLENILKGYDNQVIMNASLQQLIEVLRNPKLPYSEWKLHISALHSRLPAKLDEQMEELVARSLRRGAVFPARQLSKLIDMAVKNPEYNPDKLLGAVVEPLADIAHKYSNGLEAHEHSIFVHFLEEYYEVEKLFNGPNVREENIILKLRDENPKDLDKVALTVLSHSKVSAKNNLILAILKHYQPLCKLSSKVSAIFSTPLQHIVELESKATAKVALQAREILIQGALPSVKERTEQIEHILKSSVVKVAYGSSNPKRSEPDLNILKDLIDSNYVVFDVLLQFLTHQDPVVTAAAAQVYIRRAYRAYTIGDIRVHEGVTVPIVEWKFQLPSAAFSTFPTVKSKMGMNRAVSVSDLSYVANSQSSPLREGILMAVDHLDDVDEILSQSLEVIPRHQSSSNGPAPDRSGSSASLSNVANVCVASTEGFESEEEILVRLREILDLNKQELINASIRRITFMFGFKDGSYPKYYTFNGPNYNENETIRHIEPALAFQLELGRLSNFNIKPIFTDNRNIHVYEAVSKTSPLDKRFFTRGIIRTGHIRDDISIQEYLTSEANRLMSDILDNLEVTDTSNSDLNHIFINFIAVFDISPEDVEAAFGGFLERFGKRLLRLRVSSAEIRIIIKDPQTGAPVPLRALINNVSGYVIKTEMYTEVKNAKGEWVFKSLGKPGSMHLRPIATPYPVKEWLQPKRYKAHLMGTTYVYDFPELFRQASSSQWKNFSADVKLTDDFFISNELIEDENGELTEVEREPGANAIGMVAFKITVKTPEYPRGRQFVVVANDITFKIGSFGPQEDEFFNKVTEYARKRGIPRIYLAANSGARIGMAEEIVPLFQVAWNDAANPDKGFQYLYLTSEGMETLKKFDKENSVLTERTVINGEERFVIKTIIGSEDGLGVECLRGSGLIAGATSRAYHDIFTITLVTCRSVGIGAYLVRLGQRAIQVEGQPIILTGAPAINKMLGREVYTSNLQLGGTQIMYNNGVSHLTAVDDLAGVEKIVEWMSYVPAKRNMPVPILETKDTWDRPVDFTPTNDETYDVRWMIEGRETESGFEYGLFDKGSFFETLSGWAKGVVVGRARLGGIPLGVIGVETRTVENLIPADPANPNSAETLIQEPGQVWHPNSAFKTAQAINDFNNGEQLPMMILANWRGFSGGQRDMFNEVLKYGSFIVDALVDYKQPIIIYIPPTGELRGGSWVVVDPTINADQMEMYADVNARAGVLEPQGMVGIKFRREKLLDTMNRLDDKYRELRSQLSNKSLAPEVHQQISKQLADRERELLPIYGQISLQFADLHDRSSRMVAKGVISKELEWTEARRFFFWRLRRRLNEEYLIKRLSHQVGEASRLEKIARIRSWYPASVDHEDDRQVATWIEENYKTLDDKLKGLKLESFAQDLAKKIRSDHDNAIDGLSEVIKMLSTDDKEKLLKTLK
human (hACC2), sequence (O00763 whole entry): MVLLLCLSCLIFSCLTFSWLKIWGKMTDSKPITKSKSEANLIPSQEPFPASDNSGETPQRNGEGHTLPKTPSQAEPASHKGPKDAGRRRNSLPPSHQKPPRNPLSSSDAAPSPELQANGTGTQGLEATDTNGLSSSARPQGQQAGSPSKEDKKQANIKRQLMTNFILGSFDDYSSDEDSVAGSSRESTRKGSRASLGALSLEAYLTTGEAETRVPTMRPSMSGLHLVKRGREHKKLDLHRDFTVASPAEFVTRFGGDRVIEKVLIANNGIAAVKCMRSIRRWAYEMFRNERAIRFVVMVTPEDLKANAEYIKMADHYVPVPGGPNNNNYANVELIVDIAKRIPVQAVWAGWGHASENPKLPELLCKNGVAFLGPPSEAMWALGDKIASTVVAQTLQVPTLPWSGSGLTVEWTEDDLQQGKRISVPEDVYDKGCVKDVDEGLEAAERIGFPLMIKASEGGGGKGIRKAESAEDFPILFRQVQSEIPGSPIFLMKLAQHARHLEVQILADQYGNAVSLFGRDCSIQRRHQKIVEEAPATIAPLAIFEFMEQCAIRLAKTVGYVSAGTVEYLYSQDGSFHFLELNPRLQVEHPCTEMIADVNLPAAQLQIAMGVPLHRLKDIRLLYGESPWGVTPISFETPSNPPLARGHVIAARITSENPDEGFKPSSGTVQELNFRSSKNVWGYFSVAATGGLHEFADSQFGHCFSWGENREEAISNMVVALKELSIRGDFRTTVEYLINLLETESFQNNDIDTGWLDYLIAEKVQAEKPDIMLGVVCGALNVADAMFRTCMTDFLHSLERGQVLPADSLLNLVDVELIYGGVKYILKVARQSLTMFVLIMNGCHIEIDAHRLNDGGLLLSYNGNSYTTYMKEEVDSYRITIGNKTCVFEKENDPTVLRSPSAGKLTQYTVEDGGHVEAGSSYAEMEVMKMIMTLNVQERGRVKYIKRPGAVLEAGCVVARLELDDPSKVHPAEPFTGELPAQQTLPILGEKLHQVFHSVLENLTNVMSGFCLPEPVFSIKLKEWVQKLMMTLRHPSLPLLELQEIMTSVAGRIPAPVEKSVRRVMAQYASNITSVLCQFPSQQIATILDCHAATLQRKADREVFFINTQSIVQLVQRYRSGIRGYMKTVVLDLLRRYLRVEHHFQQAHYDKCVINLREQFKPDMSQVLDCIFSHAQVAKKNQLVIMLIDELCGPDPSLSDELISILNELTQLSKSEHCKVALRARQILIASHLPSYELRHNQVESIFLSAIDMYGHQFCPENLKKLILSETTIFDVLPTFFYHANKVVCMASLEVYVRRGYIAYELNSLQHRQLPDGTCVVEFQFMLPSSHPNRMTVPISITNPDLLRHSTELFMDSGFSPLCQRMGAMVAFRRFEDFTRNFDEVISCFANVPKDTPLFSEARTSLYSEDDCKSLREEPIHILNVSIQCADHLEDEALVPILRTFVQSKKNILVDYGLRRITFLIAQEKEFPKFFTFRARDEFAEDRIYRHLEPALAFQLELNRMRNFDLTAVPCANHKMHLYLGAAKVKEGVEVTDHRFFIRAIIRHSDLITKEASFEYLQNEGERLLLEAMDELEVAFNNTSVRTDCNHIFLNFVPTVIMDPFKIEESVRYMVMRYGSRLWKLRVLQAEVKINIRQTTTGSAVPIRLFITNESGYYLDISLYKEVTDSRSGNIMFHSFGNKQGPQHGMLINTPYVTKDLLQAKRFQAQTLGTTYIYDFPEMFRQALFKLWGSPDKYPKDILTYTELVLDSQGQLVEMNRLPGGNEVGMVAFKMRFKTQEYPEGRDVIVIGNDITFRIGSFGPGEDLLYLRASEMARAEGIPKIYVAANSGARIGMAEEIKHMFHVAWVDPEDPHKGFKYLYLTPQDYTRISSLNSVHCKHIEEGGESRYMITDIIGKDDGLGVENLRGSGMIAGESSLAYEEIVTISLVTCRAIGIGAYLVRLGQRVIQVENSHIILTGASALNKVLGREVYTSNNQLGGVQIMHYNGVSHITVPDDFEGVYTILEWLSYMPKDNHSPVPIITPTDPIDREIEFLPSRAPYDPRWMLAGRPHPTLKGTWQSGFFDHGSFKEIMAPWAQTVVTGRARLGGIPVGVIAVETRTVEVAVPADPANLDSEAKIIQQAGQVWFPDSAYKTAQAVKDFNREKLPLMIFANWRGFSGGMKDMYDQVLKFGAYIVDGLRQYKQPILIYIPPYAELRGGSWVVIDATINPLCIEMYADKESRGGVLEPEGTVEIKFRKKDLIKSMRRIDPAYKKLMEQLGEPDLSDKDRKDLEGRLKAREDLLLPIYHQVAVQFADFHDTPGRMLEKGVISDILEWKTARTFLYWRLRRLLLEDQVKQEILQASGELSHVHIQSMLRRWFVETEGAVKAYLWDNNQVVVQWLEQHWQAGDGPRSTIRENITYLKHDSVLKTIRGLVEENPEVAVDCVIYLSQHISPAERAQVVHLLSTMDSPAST

Structure (SMILES) | IC90 (Botrtyis cinerea (Bc); [5]) [µg/mL] | IC90 [1, 6] [µg/mL] | MIC (C. parapsilosis; [7]) [µg/mL] | IC50 (fungal (fACC2)) [nM] | IC90 (Diplodia maydis (Dm); [8]) [µg/mL] | MIC (C. krusei; [9]) [µg/mL] | IC90 [2, 10] [µg/mL] | IC90 (Rhizoctonia solani (Rs); [11]) [µg/mL] | IC50 (human (hACC2)) [nM] | IC90 [3, 12] [µg/mL] | MIC (C. albicans; [13]) [µg/mL] | IC90 [4, 14] [µg/mL] | IC90 (Septoria tritici (St); [15]) [µg/mL] | IC90 (Botrtyis cinerea (Bc); [16]) [µg/mL] | IC90 [1, 17] [µg/mL] | MIC (C. parapsilosis; [18]) [µg/mL] | IC90 (Diplodia maydis (Dm); [19]) [µg/mL] | MIC (C. krusei; [20]) [µg/mL] | IC90 [2] [µg/mL] | IC90 (Rhizoctonia solani (Rs); [21]) [µg/mL] | further results
COc1ccc(F)cc1[C@H](Cn1c(=O)n([C@H](C)C(=O)NC(C)C)c(=O)c2c(C)c(-n3nccn3)sc21)OCC(C)(C)C#N [Compound I-210] | 0.4 (≈ 0.654 µM) | 0.4 (≈ 0.654 µM) | 1.01 to 2 (≈ 1.65 to 3.27 µM) | 0.3 to 1 | 0.4 (≈ 0.654 µM) | 2.01 to 4 (≈ 3.29 to 6.54 µM) | 0.08 (≈ 0.131 µM) | 0.08 (≈ 0.131 µM) | 1 to 5 | > 50 | 1.01 to 2 (≈ 1.65 to 3.27 µM) | 0.4 (≈ 0.654 µM) | 2 (≈ 3.27 µM) | – | – | – | – | – | – | – | –
COc1ccc(F)cc1[C@H](Cn1c(=O)n([C@@H](C)C(=O)NC(C)C)c(=O)c2c(C)c(-n3nccn3)sc21)OCC(C)(C)C#N [Compound I-211] | 2 (≈ 3.27 µM) | > 50 | 1.01 to 2 (≈ 1.65 to 3.27 µM) | 1 to 5 | 10 (≈ 16.3 µM) | 2.01 to 4 (≈ 3.29 to 6.54 µM) | 2 (≈ 3.27 µM) | > 50 | 10 to 40 | > 50 | 1.01 to 2 (≈ 1.65 to 3.27 µM) | > 50 | > 50 | – | – | – | – | – | – | – | –
COc1ccc(F)cc1[C@H](Cn1c(=O)n([C@H](C)C(N)=O)c(=O)c2c(C)c(-n3nccn3)sc21)OCC(C)(C)C#N [Compound I-212] | 2 (≈ 3.51 µM) | 10 (≈ 17.6 µM) | 2.01 to 4 (≈ 3.53 to 7.02 µM) | 1 to 5 | 10 (≈ 17.6 µM) | > 4.01 | 2 (≈ 3.51 µM) | 2 (≈ 3.51 µM) | 1 to 5 | > 50 | 0.25 to 1 (≈ 0.439 to 1.76 µM) | 10 (≈ 17.6 µM) | > 50 | – | – | – | – | – | – | – | –
COc1ccc(F)cc1[C@H](Cn1c(=O)n([C@@H](C)C(N)=O)c(=O)c2c(C)c(-n3nccn3)sc21)OCC(C)(C)C#N [Compound I-213] | > 50 | > 50 | 2.01 to 4 (≈ 3.53 to 7.02 µM) | 1 to 5 | > 50 | > 4.01 | 10 (≈ 17.6 µM) | > 50 | 5 to 10 | > 50 | 0.25 to 1 (≈ 0.439 to 1.76 µM) | > 50 | > 50 | – | – | – | – | – | – | – | –
COc1ccc(F)cc1[C@H](Cn1c(=O)n(C(C)(C)C(=O)NC(C)C)c(=O)c2c(C)c(-n3nccn3)sc21)O[C@H]1CC[C@@H](O)CC1 [Compound I-216] | – | – | – | 0.3 to 1 | – | – | – | – | 5 to 10 | – | – | – | – | 0.4 (≈ 0.622 µM) | 0.4 (≈ 0.622 µM) | 0.25 to 1 (≈ 0.389 to 1.56 µM) | 2 (≈ 3.11 µM) | 0.06 to 0.249 (≈ 0.0933 to 0.387 µM) | 0.08 (≈ 0.124 µM) | 0.08 (≈ 0.124 µM) | IC90 [3, 22]: > 50 µg/mL; MIC (C. albicans; [23]): 0.25 to 1 µg/mL (≈ 0.389 to 1.56 µM); IC90 [4, 24]: 2 µg/mL (≈ 3.11 µM); IC90 (Septoria tritici (St); [25]): > 50 µg/mL
COc1ccccc1[C@H](Cn1c(=O)n(C(C)(C)C(=O)NC(C)C)c(=O)c2c(C)c(-n3nccn3)sc21)O[C@H]1CC[C@@H](O)CC1 [Compound I-217] | – | – | – | 0.3 to 1 | – | – | – | – | 5 to 10 | – | – | – | – | 0.4 (≈ 0.64 µM) | 0.4 (≈ 0.64 µM) | 0.25 to 1 (≈ 0.4 to 1.6 µM) | 2 (≈ 3.2 µM) | 0.06 to 0.249 (≈ 0.096 to 0.399 µM) | 0.08 (≈ 0.128 µM) | 0.08 (≈ 0.128 µM) | IC90 [3, 22]: > 50 µg/mL; MIC (C. albicans; [23]): 0.25 to 1 µg/mL (≈ 0.4 to 1.6 µM); IC90 [4, 24]: 2 µg/mL (≈ 3.2 µM); IC90 (Septoria tritici (St); [25]): > 50 µg/mL
COc1ccc(F)cc1[C@H](Cn1c(=O)n(C(C)(C)C(=O)NC(C)C)c(=O)c2c(C)c(-n3nccn3)sc21)OCCC(=O)NO [Compound I-218] | – | – | – | 1 to 5 | – | – | – | – | 10 to 40 | – | – | – | – | 2 (≈ 3.17 µM) | 2 (≈ 3.17 µM) | 0.25 to 1 (≈ 0.396 to 1.58 µM) | 10 (≈ 15.8 µM) | 0.25 to 1 (≈ 0.396 to 1.58 µM) | 2 (≈ 3.17 µM) | 2 (≈ 3.17 µM) | IC90 [3, 22]: > 50 µg/mL; MIC (C. albicans; [23]): 0.25 to 1 µg/mL (≈ 0.396 to 1.58 µM); IC90 [4, 24]: 10 µg/mL (≈ 15.8 µM); IC90 (Septoria tritici (St); [25]): > 50 µg/mL
